IC50 data for 19 molecules are collected here from patent US9670227B2, “Thienopyrimidine derivatives, a process for their preparation and pharmaceutical compositions containing them” (LES LABORATOIRES SERVIER, priority 2013, dated 2017).

Where two headings read alike, the source gives them in different places.

One test concerns the target Mcl-1 protein (UniProtKB primary accession number: Q07820) (Homo sapiens, UniProt Q07820). The test is described as follows: Inhibition of Mcl-1 by fluorescence polarisation, Method 1. It is filed as binding. To be noted: read-out: IC50 (M) Mcl-1 FP. The gist of the method: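 FP competition, 11-point compound titration in 5% final DMSO; protein and labelled probe at 5 nM and 1 nM final in HEPES/NaCl/Tween 20 buffer, pH 7.4.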
Background: Fluorescence polarisation rises when a labelled molecule tumbles more slowly, as on binding a larger partner.

Test [1] relates to H929 multiple myeloma tumour line. The test is described as follows: In vitro cytotoxicity, Microculture Tetrazolium Assay. To be noted: Homo sapiens, NCI-H929, 48 h, H929 cells, 48 hours exposure, MTT; read-out: IC50 (μM) MTT H929. It is filed as cell-based. Here is the method: The cytotoxicity studies were carried out on the H929 multiple myeloma tumour line.
The cells are distributed onto microplates and exposed to the test compounds for 48 hours.

The mark [2] stands for this setting: fluorescence polarisation test, Method 2 values are underlined in the patent (underlining not visible here).
Setting [3] is: fluorescence polarisation, Method 1, or Method 2.

Chain of Mcl-1 protein (Q07820 whole entry): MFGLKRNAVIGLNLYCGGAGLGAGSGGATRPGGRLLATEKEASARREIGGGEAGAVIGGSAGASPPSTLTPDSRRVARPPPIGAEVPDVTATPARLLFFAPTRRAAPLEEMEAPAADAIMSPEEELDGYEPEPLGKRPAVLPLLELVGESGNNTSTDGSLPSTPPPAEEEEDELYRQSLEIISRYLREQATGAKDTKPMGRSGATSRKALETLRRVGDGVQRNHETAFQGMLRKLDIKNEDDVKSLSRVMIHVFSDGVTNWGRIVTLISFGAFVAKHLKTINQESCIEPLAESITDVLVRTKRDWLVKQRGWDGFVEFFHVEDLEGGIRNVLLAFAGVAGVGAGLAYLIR

Take `COc1c(F)cccc1CC(Oc1ncnc2sc(-c3ccco3)c(-c3ccc(OCCN4CCN(C)CC4)c(Cl)c3C)c12)C(=O)O` [Example 352, (2R)-2-{[(5Sa)-5-{3-chloro-2-methyl-4-[2-(4-methylpiperazin-1-yl)ethoxy]phenyl}-6-(furan-2-yl)thieno[2,3-d]pyrimidin-4-yl]oxy}-3-(3-fluoro-2-methoxyphenyl)propanoic acid]: the results for the 50% inhibitory concentration (IC50) (on Mcl-1 protein (setting [2]); in test [1]) were 1.4e-08 M and 0.91 µM, respectively.

Take `Cc1c(-c2c(-c3ccc(F)cc3)sc3ncnc(OC(Cc4ccccc4OCc4cnnn4-c4ccccc4)C(=O)O)c23)ccc(OCCN2CCN(C)CC2)c1Cl` [Example 94, (2R)-2-{[(5Sa)-5-{3-chloro-2-methyl-4-[2-(4-methylpiperazin-1-yl)ethoxy]phenyl}-6-(4-fluorophenyl)thieno[2,3-d]pyrimidin-4-yl]oxy}-3-{2-[(1-phenyl-1H-1,2,3-triazol-5-yl)methoxy]phenyl}propanoic acid]: the 50% inhibitory concentration (IC50) (usually the concentration that inhibits the measured activity by half) on Mcl-1 protein (setting [2]) was determined as 1.9e-09 M; in test [1], 0.085 µM.

Regarding `Cc1c(-c2c(-c3ccco3)sc3ncnc(OC(Cc4ccccc4OCc4cnc(Cl)cn4)C(=O)O)c23)ccc(OCCN2CCN(C)CC2)c1Cl` [Example 269, (2R)-2-{[(5Sa)-5-{3-chloro-2-methyl-4-[2-(4-methylpiperazin-1-yl)ethoxy]phenyl}-6-(furan-2-yl)thieno[2,3-d]pyrimidin-4-yl]oxy}-3-{2-[(5-chloropyrazin-2-yl)methoxy]phenyl}propanoic acid], the figures for the half-inhibitory concentration (IC50) (at Mcl-1 protein (setting [2]); in test [1]) were 1.1e-08 M and 0.069 µM, respectively.

Regarding `COc1ccccc1CC(Oc1ncnc2sc(-c3ccco3)c(-c3ccc(OCCN4CCN(Cc5ccccc5)CC4)c(Cl)c3C)c12)C(=O)O` [Example 329, (2R)-2-{[(5Sa)-5-{4-[2-(4-benzylpiperazin-1-yl)ethoxy]-3-chloro-2-methylphenyl}-6-(furan-2-yl)thieno[2,3-d]pyrimidin-4-yl]oxy}-3-(2-methoxyphenyl)propanoic acid], the IC50 on Mcl-1 protein (setting [2]) came out at 6e-08 M; in test [1] it was 3.31 µM.

With `Cc1c(-c2c(-c3ccco3)sc3ncnc(OC(Cc4ccccc4OCC4CCO4)C(=O)O)c23)ccc(OCCN2CCN(C)CC2)c1Cl` [Example 266, (2R)-2-{[(5Sa)-5-{3-chloro-2-methyl-4-[2-(4-methylpiperazin-1-yl)ethoxy]phenyl}-6-(furan-2-yl)thieno[2,3-d]pyrimidin-4-yl]oxy}-3-[2-(oxetan-2-ylmethoxy)phenyl]propanoic acid], the half-inhibitory concentration (IC50) at Mcl-1 protein (setting [2]) turned out to be 5.7e-09 M; in test [1], 0.093 µM.

For the molecule `CCc1nccc(COc2ccccc2CC(Oc2ncnc3sc(-c4ccc(F)cc4)c(-c4ccc(OCCN5CCN(C)CC5)c(Cl)c4C)c23)C(=O)O)n1` [Example 37, (2R)-2-{[(5Sa)-5-{3-chloro-2-methyl-4-[2-(4-methylpiperazin-1-yl)ethoxy]phenyl}-6-(4-fluorophenyl)thieno[2,3-d]pyrimidin-4-yl]oxy}-3-{2-[(2-ethylpyrimidin-4-yl)methoxy]phenyl}propanoic acid], the half-maximal inhibitory concentration (IC50) on Mcl-1 protein (setting [2]) stood at 6e-09 M; in test [1], 0.014 µM.

Consider `CCc1sc2ncnc(OC(Cc3ccccc3)C(=O)O)c2c1-c1ccc(OCCN2CCNC2=O)c(Cl)c1C` [Example 419, (2R)-2-[((5Sa)-5-{3-chloro-2-methyl-4-[2-(2-oxoimidazolidin-1-yl)ethoxy]phenyl}-6-ethylthieno[2,3-d]pyrimidin-4-yl)oxy]-3-phenylpropanoic acid], for which the 50% inhibitory concentration (IC50) at Mcl-1 protein (setting [3]) amounted to 3.4e-08 M; in test [1], 21.5 µM.

Consider `Cc1c(-c2c(-c3ccco3)sc3ncnc(OC(Cc4ccccc4OC(C)C)C(=O)O)c23)ccc(OCCN2CCN(C)CC2)c1Cl` [Example 210, (2R)-2-{[(5Sa)-5-{3-chloro-2-methyl-4-[2-(4-methylpiperazin-1-yl)ethoxy]phenyl}-6-(furan-2-yl)thieno[2,3-d]pyrimidin-4-yl]oxy}-3-[2-(propan-2-yloxy)phenyl]propanoic acid], for which the results for the IC50 (at Mcl-1 protein (setting [2]); in test [1]) were 1e-08 M and 0.406 µM, respectively.

Regarding `CCc1sc2ncnc(OC(Cc3ccccc3)C(=O)O)c2c1-c1ccc(OCCN(CCO)CCO)c(Cl)c1C` [Example 412, (2R)-2-{[(5Sa)-5-(4-{2-[bis(2-hydroxyethyl)amino]ethoxy}-3-chloro-2-methylphenyl)-6-ethylthieno[2,3-d]pyrimidin-4-yl]oxy}-3-phenylpropanoic acid], the results for the IC50 (on Mcl-1 protein (setting [3]); in test [1]) were 5.1e-08 M and 28.7 µM, respectively.

For the molecule `Cc1cc(COc2ccccc2CC(Oc2ncnc3sc(-c4ccc(F)cc4)c(-c4ccc(OCCN5CCN(C)CC5)c(Cl)c4C)c23)C(=O)O)no1` [Example 9, (2R)-2-{[(5Sa)-5-{3-chloro-2-methyl-4-[2-(4-methylpiperazin-1-yl)ethoxy]phenyl}-6-(4-fluorophenyl)thieno[2,3-d]pyrimidin-4-yl]oxy}-3-{2-[(5-methyl-1,2-oxazol-3-yl)methoxy]phenyl}propanoic acid], the IC50 was 9.3e-09 M on Mcl-1 protein (setting [2]) and 0.363 µM in test [1].

`COCCOc1ccccc1CC(Oc1ncnc2sc(-c3ccc(F)cc3)c(-c3ccc(OCCN4CCN(C)CC4)c(Cl)c3C)c12)C(=O)O` [Example 104, (2R)-2-{[(5Sa)-5-{3-chloro-2-methyl-4-[2-(4-methylpiperazin-1-yl)ethoxy]phenyl}-6-(4-fluorophenyl)thieno[2,3-d]pyrimidin-4-yl]oxy}-3-[2-(2-methoxyethoxy)phenyl]propanoic acid]: the IC50 stood at 7.5e-09 M at Mcl-1 protein (setting [2]) and 0.386 µM in test [1].

For `COc1ccccc1-c1nccc(COc2ccccc2CC(Oc2ncnc3sc(-c4ccc(OCc5ccnn5C)cc4)c(-c4ccc(OCCN5CCN(C)CC5)c(Cl)c4C)c23)C(=O)O)n1` [Example 771, (2R)-2-[((5Sa)-5-{3-chloro-2-methyl-4-[2-(4-methylpiperazin-1-yl)ethoxy]phenyl}-6-{4-[(1-methyl-1H-pyrazol-5-yl)methoxy]phenyl}thieno[2,3-d]pyrimidin-4-yl)oxy]-3-(2-{[2-(2-methoxyphenyl)pyrimidin-4-yl]methoxy}phenyl)propanoic acid], the half-maximal inhibitory concentration (IC50) on Mcl-1 protein (setting [3]) was determined as 1.04e-09 M; in test [1], 0.019 µM.

Turning to `Cc1c(-c2c(-c3ccco3)sc3ncnc(OC(Cc4ccccc4OCCOCc4ccccc4)C(=O)O)c23)ccc(OCCN2CCN(C)CC2)c1Cl` [Example 292, (2R)-3-{2-[2-(benzyloxy)ethoxy]phenyl}-2-{[(5Sa)-5-{3-chloro-2-methyl-4-[2-(4-methylpiperazin-1-yl)ethoxy]phenyl}-6-(furan-2-yl)thieno[2,3-d]pyrimidin-4-yl]oxy}propanoic acid], the IC50 at Mcl-1 protein (setting [2]) is 9.3e-09 M; in test [1], 0.192 µM.

For `COCCn1nccc1COc1ccccc1CC(Oc1ncnc2sc(-c3ccc(F)cc3)c(-c3ccc(OCCN4CCN(C)CC4)c(Cl)c3C)c12)C(=O)O` [Example 88, (2R)-2-{[(5Sa)-5-{3-chloro-2-methyl-4-[2-(4-methylpiperazin-1-yl)ethoxy]phenyl}-6-(4-fluorophenyl)thieno[2,3-d]pyrimidin-4-yl]oxy}-3-(2-{[1-(2-methoxyethyl)-1H-pyrazol-5-yl]methoxy}phenyl)propanoic acid], the IC50 was determined as 4.2e-09 M on Mcl-1 protein (setting [2]) and 0.062 µM in test [1].

On to `Cc1c(-c2c(-c3ccc(F)cc3)sc3ncnc(OC(Cc4ccccc4OCc4ccnc(CC5CC5)n4)C(=O)O)c23)ccc(OCCN2CCN(C)CC2)c1Cl` [Example 39, (2R)-2-{[(5Sa)-5-{3-chloro-2-methyl-4-[2-(4-methylpiperazin-1-yl)ethoxy]phenyl}-6-(4-fluorophenyl)thieno[2,3-d]pyrimidin-4-yl]oxy}-3-(2-{[2-(cyclopropylmethyl)pyrimidin-4-yl]methoxy}phenyl)propanoic acid], for which the IC50 on Mcl-1 protein (setting [2]) was 4.8e-09 M; in test [1], 0.015 µM.

For `Cc1c(-c2c(-c3ccco3)sc3ncnc(OC(Cc4ccccc4OC4CCCC4)C(=O)O)c23)ccc(OCCN2CCN(C)CC2)c1Cl` [Example 212, (2R)-2-{[(5Sa)-5-{3-chloro-2-methyl-4-[2-(4-methylpiperazin-1-yl)ethoxy]phenyl}-6-(furan-2-yl)thieno[2,3-d]pyrimidin-4-yl]oxy}-3-[2-(cyclopentyloxy)phenyl]propanoic acid], the concentration for half-maximal inhibition (IC50) on Mcl-1 protein (setting [2]) amounted to 1.6e-08 M; in test [1], 0.616 µM.

Consider `Cc1c(-c2c(-c3ccc(F)cc3)sc3ncnc(OC(Cc4ccccc4OCc4ccnc(C(F)(F)F)c4)C(=O)O)c23)ccc(OCCN2CCN(C)CC2)c1Cl` [Example 17, (2R)-2-{[(5Sa)-5-{3-chloro-2-methyl-4-[2-(4-methylpiperazin-1-yl)ethoxy]phenyl}-6-(4-fluorophenyl)thieno[2,3-d]pyrimidin-4-yl]oxy}-3-(2-{[2-(trifluoromethyl)pyridin-4-yl]methoxy}phenyl)propanoic acid], for which the 50% inhibitory concentration (IC50) was 1.2e-08 M at Mcl-1 protein (setting [2]) and 0.062 µM in test [1].

On to `Cc1c(-c2c(-c3ccc(F)cc3)sc3ncnc(OC(Cc4ccccc4OCc4ccnc(Cl)c4)C(=O)O)c23)ccc(OCCN2CCN(C)CC2)c1Cl` [Example 19, (2R)-2-{[(5Sa)-5-{3-chloro-2-methyl-4-[2-(4-methylpiperazin-1-yl)ethoxy]phenyl}-6-(4-fluorophenyl)thieno[2,3-d]pyrimidin-4-yl]oxy}-3-{2-[(2-chloropyridin-4-yl)methoxy]phenyl}propanoic acid], for which the figures for the half-inhibitory concentration (IC50) (at Mcl-1 protein (setting [2]); in test [1]) were 4.4e-09 M and 0.064 µM, respectively.

For the molecule `CCc1sc2ncnc(OC(Cc3ccccc3)C(=O)O)c2c1-c1ccc(OCCc2cccnc2)c(Cl)c1C` [Example 396, (2R)-2-[((5Sa)-5-{3-chloro-2-methyl-4-[2-(pyridin-3-yl)ethoxy]phenyl}-6-ethylthieno[2,3-d]pyrimidin-4-yl)oxy]-3-phenylpropanoic acid], the half-maximal inhibitory concentration (IC50) at Mcl-1 protein (setting [3]) was determined as 9.9e-08 M; in test [1], 16.1 µM.
